Assay results taken from patent US20130123253A1, “MODULATORS OF CENTRAL NERVOUS SYSTEM NEUROTRANSMITTERS” (HUMAN BIOMOLECULAR RESEARCH INSTITUTE, priority 2004, published 2013).
Like-named read-outs stand apart in the source and are kept apart here.

Key:
[1] = Rat liver microsome stability assay; type: in vitro ADME
Protocol: (§1) A typical assay mixture contained either mouse or rat liver microsomes (0.5 mg of protein), […] potassium phosphate buffer (pH 7.4), 40 μM test compounds, 0.5 mM NADP+, 0.5 mM glucose-6-phosphate, 5 IU/mL glucose-6-phosphate dehydrogenase, 1 mg/mL diethylenetriaminepentaacetic acid (DETAPAC) and 5 mM MgCl2 in a final incubation volume of 0.1 mL. After 0, 10, 25, 40 and […], the incubations were stopped by the addition of 1 ml CH2Cl2/2-propanol (3:1 v:v). The mixture was centrifuged at 12,000×g for 1 min, and the organic layer was separated from the aqueous fraction. The organic fraction was evaporated with a stream of argon and the residue was taken up in methanol (200 μL) and injected into the HPLC system described above.
Microsomal incubations (final volume 0.25 mL) with the SSRIs, dual PDE4 inhibitor/SSRIs or PDE4 inhibitor was done with an HPLC assay as described above. Diluted stocks of either mouse, human or rat liver microsomes (0.5 mg of protein), […] potassium phosphate buffer (pH 7.4), 0.5 mM NADI)^+, 0.5 mM glucose-6-phosphate, 5 IU/mL glucose-6-phosphate dehydrogenase, 0.6 mM DETAPAC, and 3 mM MgC12 were combined and placed on ice. For a metabolic stability assay, either vehicle or 40 μM test compound was added and the incubation was initiated at 37° C. with constant shaking. […] The residue was dissolved in methanol (200 μL) and the sample was analyzed by HPLC.

[2] = Mouse liver microsome stability assay; type: in vitro ADME; conditions: for half life, mouse liver microsomes: NADPH; for MLM t1/2: Table 16
Protocol: as §1
(§2) Microsomal incubations (final volume 0.25 mL) with the SSRIs, dual PDE4 inhibitor/SSRIs or PDE4 inhibitor was done with an HPLC assay as described above. Diluted stocks of either mouse, human or rat liver microsomes (0.5 mg of protein), […] potassium phosphate buffer (pH 7.4), 0.5 mM NADI)^+, 0.5 mM glucose-6-phosphate, 5 IU/mL glucose-6-phosphate dehydrogenase, 0.6 mM DETAPAC, and 3 mM MgC12 were combined and placed on ice. For a metabolic stability assay, either vehicle or 40 μM test compound was added and the incubation was initiated at 37° C. with constant shaking. After 0, 10, 25, 40 and 60 min, the incubations were stopped by the addition of 1 mL CH2Cl2/2-propanol (3:1, v:v). After thorough mixing, the organic layer was separated from the aqueous portion by centrifugation at 12,000×g. The organic material was evaporated with a stream of argon. The residue was dissolved in methanol (200 μL) and the sample was analyzed by HPLC.

GRK2 = biological target: T1, GRK2 (Homo sapiens, UniProt P25098); experiment: High throughput KinaseGlo kinase assay; type: biochemical
T1 construct: host or cells: gift of a collaborator (Professor Benovic, Thomas Jefferson University)
T1 sequence (P25098 1-689): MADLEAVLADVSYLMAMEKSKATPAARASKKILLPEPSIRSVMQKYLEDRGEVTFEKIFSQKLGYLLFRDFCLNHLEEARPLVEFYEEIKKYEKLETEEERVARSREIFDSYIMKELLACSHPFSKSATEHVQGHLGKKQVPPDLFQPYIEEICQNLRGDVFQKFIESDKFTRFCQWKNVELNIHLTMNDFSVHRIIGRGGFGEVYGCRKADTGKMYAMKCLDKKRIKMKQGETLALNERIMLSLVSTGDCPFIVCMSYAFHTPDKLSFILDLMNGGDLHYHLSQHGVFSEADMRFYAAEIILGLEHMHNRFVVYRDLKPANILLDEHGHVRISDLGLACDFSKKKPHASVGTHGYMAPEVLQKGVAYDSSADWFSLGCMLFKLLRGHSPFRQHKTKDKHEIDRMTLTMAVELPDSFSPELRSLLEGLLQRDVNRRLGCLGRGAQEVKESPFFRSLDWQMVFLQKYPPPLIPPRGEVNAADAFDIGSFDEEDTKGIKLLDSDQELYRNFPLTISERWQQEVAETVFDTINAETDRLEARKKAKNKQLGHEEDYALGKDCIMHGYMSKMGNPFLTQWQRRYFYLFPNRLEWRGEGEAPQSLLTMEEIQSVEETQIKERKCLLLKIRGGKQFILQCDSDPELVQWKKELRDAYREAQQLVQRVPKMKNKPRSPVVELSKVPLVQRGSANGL
Source text: A homogenous KinaseGlo assay was developed and conducted in a 96-well format. Briefly, the assay design allowed large numbers of tests to be done in a high throughput fashion using a 96-well plate reader system. The KinaseGlo assay involved transfer of γ-phosphate from [γ^33P]ATP by GRK2 to tubulin.

ICR mice = experiment: Forced-swim test in ICR mice; type: in vivo, mouse
Protocol: Forty male ICR mice, weighed 26.2±0.3 g, were housed in a temperature-controlled room (22-23° C.) and maintained on a 12-hour on 12-hour off light cycle (lights on at 6:00 AM). Water and food were freely available in the home cages. […] Saline containing the same percentage of DMSO was used as vehicle. The lower doses were tested followed by the larger doses 1 week later, when the mice were again randomly divided into four groups as described above. The forced-swim test (FST) was carried out as described previously. Mice were given a swimming pretest session, once a day for two successive days. Twenty-four hours after the last session, mice were injected vehicle or the lower dose of each test compound by the i.p. route 30 min prior to the FST. One week later, administration of the larger dose of each of the test compounds was repeated. During the pretest and test sessions, each mouse was placed for 6 min in a plastic cylinder (45 cm high×20 cm diameter), which was filled to a depth of 28 cm with water (23±1° C.). The duration of immobility, which was defined as floating in an upright position without additional activity other than that necessary for the animal to keep its head above water, was recorded.

human PDE4D3 = biological target: T2, human PDE4D3 (Homo sapiens, UniProt Q08499); experiment: Inhibition of cAMP hydrolysis by recombinant human PDE4D3; type: biochemical
T2 construct: made in house; host or cells: Cos 7 cells (construct and cells a gift from Dr. Conti, Stanford)
T2 sequence (Q08499 1-673 isoform Q08499-2): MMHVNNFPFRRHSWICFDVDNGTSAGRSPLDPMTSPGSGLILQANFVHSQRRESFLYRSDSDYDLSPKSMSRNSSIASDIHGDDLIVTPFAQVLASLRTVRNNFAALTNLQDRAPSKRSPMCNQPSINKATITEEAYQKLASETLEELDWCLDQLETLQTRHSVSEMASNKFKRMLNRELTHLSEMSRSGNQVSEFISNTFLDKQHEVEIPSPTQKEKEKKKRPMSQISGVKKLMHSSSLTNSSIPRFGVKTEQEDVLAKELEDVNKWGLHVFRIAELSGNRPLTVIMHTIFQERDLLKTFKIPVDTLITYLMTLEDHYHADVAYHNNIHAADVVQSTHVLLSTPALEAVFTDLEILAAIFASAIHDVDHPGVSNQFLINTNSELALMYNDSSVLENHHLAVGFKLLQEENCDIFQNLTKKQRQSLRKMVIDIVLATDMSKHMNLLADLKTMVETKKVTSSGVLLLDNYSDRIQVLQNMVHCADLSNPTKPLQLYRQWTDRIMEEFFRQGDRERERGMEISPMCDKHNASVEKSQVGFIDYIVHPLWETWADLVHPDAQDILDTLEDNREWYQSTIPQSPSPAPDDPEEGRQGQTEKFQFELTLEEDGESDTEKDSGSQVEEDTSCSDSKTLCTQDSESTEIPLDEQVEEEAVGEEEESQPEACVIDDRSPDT
Protocol: The PDE construct was transfected into Cos 7 cells in round culture dish (100×20 mm). The cells were then harvested and homogenized with lysis buffer. The crude homogenate was spun at maximum speed in a microfuge. The supernatant fluid was saved as an extract. […] The PDE construct and Cos 7 cells were a kind gift from Dr. Conti at the Stanford University School of Medicine.
(§3) PDE4 enzyme assays were carried out as described previously. Studies with recombinant PDE4 enzymes were carried out in the laboratory of Professor Marco Conti (Stanford University, Palo Alto, Calif.).

human PDE4A1 = biological target: T3, human PDE4A1 (Homo sapiens, UniProt P27815); experiment: Inhibition of cAMP hydrolysis by recombinant human PDE4A1; type: biochemical
T3 construct: made in house
T3 sequence (P27815 1-647 isoform P27815-4): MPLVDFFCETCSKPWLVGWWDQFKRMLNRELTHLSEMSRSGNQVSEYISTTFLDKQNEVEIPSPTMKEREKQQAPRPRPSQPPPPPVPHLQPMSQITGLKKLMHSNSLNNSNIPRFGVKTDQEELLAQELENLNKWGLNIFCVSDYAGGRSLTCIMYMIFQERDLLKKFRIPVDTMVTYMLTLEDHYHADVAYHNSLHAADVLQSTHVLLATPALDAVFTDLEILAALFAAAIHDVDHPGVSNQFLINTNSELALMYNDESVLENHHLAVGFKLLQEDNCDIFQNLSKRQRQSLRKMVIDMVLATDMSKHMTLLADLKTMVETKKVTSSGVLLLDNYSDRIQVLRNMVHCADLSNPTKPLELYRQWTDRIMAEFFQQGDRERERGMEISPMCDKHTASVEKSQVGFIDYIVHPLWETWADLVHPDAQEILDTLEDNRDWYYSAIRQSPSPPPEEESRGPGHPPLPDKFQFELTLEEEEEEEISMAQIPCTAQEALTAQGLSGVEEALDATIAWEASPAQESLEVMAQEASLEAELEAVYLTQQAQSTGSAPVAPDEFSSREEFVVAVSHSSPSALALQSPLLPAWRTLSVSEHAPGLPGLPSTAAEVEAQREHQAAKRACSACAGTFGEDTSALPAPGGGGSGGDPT
Protocol: as §3

rodent PDE4 = experiment: Inhibition of rodent PDE4 (rolipram binding sites); conditions: Table 4
Protocol: IC50 values for inhibitor interaction with this site were calculated by nonlinear regression analysis of competition curves for unlabeled PDE4 inhibitors; Ki values were determined according to the method of Cheng and Prusoff (1973). […] Competition curves for the PDE4 inhibitors were subjected to nonlinear regression analysis and IC50 values with which the inhibitors bind to each of the binding sites was determined; K1 values were determined according to the method of Cheng and Prusoff (1973).

human PDE4B3 = biological target: T4, human PDE4B3 (Homo sapiens, UniProt Q07343); experiment: Inhibition of cAMP hydrolysis by recombinant human PDE4B3; type: biochemical; conditions: Example 29
T4 construct: made in house
T4 sequence (Q07343 1-721 isoform Q07343-3): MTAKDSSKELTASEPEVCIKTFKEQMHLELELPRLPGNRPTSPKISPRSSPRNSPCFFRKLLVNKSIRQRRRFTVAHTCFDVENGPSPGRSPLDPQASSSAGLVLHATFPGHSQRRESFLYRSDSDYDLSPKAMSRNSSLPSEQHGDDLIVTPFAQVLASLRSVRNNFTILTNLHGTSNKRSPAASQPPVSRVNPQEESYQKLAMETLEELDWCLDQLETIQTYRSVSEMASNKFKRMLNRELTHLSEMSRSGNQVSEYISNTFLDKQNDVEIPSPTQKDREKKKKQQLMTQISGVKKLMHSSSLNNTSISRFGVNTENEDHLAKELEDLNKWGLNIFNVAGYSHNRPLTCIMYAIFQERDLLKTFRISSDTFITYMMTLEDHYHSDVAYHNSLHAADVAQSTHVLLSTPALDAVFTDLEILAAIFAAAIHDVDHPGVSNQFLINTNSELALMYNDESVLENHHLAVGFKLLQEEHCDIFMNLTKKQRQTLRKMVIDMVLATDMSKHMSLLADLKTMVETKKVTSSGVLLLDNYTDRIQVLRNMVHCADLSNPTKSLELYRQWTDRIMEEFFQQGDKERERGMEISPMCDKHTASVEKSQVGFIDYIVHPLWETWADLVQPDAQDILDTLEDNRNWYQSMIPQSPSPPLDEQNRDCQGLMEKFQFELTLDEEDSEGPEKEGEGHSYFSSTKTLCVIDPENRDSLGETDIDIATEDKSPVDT
Protocol: as §3

[3] = Human liver microsome stability assay; type: in vitro ADME
Protocol: as §2

Balb/c mice = experiment: Forced-swim test in Balb/c mice; type: in vivo, mouse; conditions: i.p. 23, 5 and 1 hr prior; fluoxetine 10 mg/kg, 18k/l or 14 10 mg/kg, 21 1 mg/kg
Protocol: The study was conducted according to a standard operation procedure and in accordance with all Federal regulations. Water and food were freely available in the home cages. […] Mice were given a swimming pretest session, once a day for two successive days. […] During the pretest and test sessions, each mouse was placed for […] in a plastic cylinder (45 cm high×20 cm diameter), which was filled to a depth of 28 cm with water (23±1° C.). The duration of immobility, which was defined as floating in an upright position without additional activity other than that necessary for the animal to keep its head above water, was recorded. For the subchronic administration tests, the animals were separated as above and vehicle or chemicals were given by i.p. administration 23, 5 and 1 hr before the FST. The subchronic experiments were done similar to the study described above except for the pretest training that was not carried out.
Mice in the first session were treated with vehicle or the drugs acutely, whereas mice in the second sessions were treated subchronically, i.e., vehicle or drugs were given i.p. 23, 5, and 1 hr before the FST. The experiment was performed similar to Experiment 1 except for the pretest training, which was not carried out in the second session.

mice = experiment: Morris water maze test; type: in vivo, mouse; conditions: 3 mg/kg, compared to control mice
Protocol: Compounds 19 and 115 were tested in a Morris water maze test. The escape latency (time to climb onto a hidden platform) for each mouse was recorded as a memory test. […] Compared to a group of control mice, compound 19 and 115 caused a 30% improvement in memory at 3 mg/kg. […] This is not completely unexpected as SSRIs often require repeated dosing to see a large and significant effect. […] Multiple dosing likely will increase the efficacy of the compounds tested.

CNCCC1CCC(CCc2cc(F)ccc2OC)O1 (stereo not shown) [Compound 24, (2-{5-[2-(5-Fluoro-2-methoxy-phenyl)-ethyl]-tetrahydro-furan-2-yl}-ethyl)-methyl-amine]
half life, rat liver microsomes ([1]; NADPH): 2.15 h | RLM t1/2 ([1]; Table 16): 2.15 h | half life, mouse liver microsomes [2]: 0.967 h | MLM t1/2 [2]: 0.975 h

NC1CC1c1cccnc1 (stereo not shown) [2-(pyridine-3-yl)cyclopropanamine]
GRK2 stimulation or inhibition (GRK2): potent stimulators of GRK2

COc1ccc(F)cc1CCC1CCC(CCNCCCCCN2N=C(c3ccc(OC)c(OC)c3)C3CC=CCC3C2=O)O1 (racemic) [Compound 21, 4-(3,4-Dimethoxy-phenyl)-2-[5-(2-{5-[2-(5-fluoro-2-methoxy-phenyl)-ethyl]-thtrahydro-furan-2-yl}-ethylamino)-pentyl]-4,5,8,8a-tetrahydro-2H-phthalazin-1-one]
immobility, forced-swim test, acute, higher dose (ICR mice; 3 mg/kg i.p., vs vehicle, P<0.05): significantly reduced immobility | duration of immobility, forced-swim test, acute (ICR mice; 0.3 and 3 mg/kg i.p.): decreased duration of immobility in a dose-dependent manner | efficacy relative to fluoxetine on a molar basis (ICR mice; 21 0.5 μmol/kg vs fluoxetine 65 μmol/kg): 129 fold | PDE4A1/PDE4D3 inhibitory selectivity ratio (human PDE4D3): < 500 fold | PDE4B3/PDE4D3 inhibitory selectivity ratio (human PDE4D3): 100 fold | Ki (human PDE4D3; Example 29, read-out: Ki, human PDE4D3): 0.002 µM | Ki (human PDE4A1; Example 29, read-out: Ki, human PDE4A1): > 1 µM | Ki (human PDE4A1; Table 14, read-out: Human PDE4A1 Ki): < 1 µM | pIC50 (rodent PDE4): 6.6 | Ki (human PDE4B3): 0.199 µM | half life, mouse liver microsomes [2]: 2.57 h | MLM t1/2 [2]: 2.565 h | metabolism in human liver microsomes ([3]; NADPH, up to 60 min): not detectably metabolized | half-life at 40 μM ([3]; human, liver microsomes, pH 7.4, Table 16, read-out: HLM t1/2): > 1 h | immobility, forced-swim test, subchronic (Balb/c mice): did not change immobility

COc1ccc(F)cc1CCC1CCC(CCN)O1 (stereo not shown) [Compound 28]
improvement in memory (escape latency) (mice): ~10% | GRK2 stimulation or inhibition (GRK2): potent stimulators of GRK2
